Patent publication US20250188457A1, “COMPOSITIONS AND METHODS FOR THE TREATMENT OF GLIOBLASTOMA BY INHIBITION OF THE TFPI2-CD51-STAT6 SIGNALING AXIS” (Northwestern University, priority 2023, published 2025)

Experiments:
005 GSC and CT2A tumors = assay: Survival of C57BL/6 mice implanted with 005 GSCs or CT2A cells; format: in vivo, mouse; conditions: for survival of mice bearing 005 GSC and CT2A tumors, combination with anti-PD1 therapy: anti-PD1 10 mg/kg i.p. on days 11, 14 and 17, MK-0429 30 mg/kg or AS1517499 10 mg/kg i.p. every other day
Method: (§1) Female C57BL/6 (#0000664), nude mice (#007850), and B6.12952(C)-Stat6tm1Gru/J mice (STAT6-KO; #005977) at 6 weeks of age were purchased from the Jackson Laboratory. Mice were grouped by 5 animals and maintained in a pathogen-free IVC System (San Diego, CA) for a week before the experiment. All animal experiments were performed with the approval of the Institutional Animal Care and Use Committee (IACUC) at Northwestern University. The intracranial xenograft tumor models were established (Refs. 11, 61; incorporated by reference in their entireties). Ketamine (100 mg/kg) and xylazine (20 mg/kg) were used for anesthetizing mice through intraperitoneal injection. Then a dental drill was used to open a small hole in the skull 1.2 mm anterior and 3.0 mm lateral to the bregma. A total volume of […] cells in FBS-free DMEM was injected into the right caudate nucleus 3 mm below the surface of the brain using a […] Hamilton syringe with an unbeveled 30-gauge needle. Total three doses of 20 mg/kg meloxicam were administrated before and after surgery through subcutaneous injection. After cancer cell implantation, mice were monitored for recording survival. Mice with neurological deficits or moribund appearance were sacrificed. Following the transcardiac perfusion with PBS and 4% paraformaldehyde (PFA), brains were removed and fixed in 4% PFA, and were processed for paraffin-embedded blocks or cryosectioning.

GSC23 and GSC262 cells [1] = assay: Tumorsphere formation assay (GSC self-renewal); format: cell-based, human; conditions: GSC23 and GSC262 with TFPI2 OE plasmid; JNK-IN-8 10 nM, WP1066 20 nM
Method: The tumorsphere formation assay was performed (Ref. 79; incorporated by reference in its entirety). GSCs were treated with different concentrations of recombinant TFPI2 protein for 24 hrs with or without inhibition of JNK or STAT3, or modified with TFPI21 KO, knockdown or overexpression. After treatment or genetic modifications, cells were centrifuged at 1500 rpm for 5 min and resuspended in the plain cell culture media without additional supplements. Cells were then seeded into a 96-wells plate at 100 cells/well. The number of tumorspheres in each well was imaged and quantified after 10 days.

GSC23 and GSC262 cells [2] = assay: CFSE proliferation analysis of GSCs; format: cell-based, human; conditions: GSC23 and GSC262 with TFPI2 OE plasmid; JNK-IN-8 10 nM, WP1066 20 nM
Method: Cell proliferation was assessed using the CellTrace CFSE Cell Proliferation Kit (Invitrogen, #C34554). 10^6 cells were harvested and incubated with CFSE working solution (1:1000) for 20 min at 37° C. The staining was stopped by adding complete cell culture media. After washing, cells were continuously cultured for 5 days in the dark. At the end of the incubation, cells were collected by spinning down at 1500 rpm for 5 min. The cell pellet was resuspended in cell staining buffer for flow cytometry analysis. The percentage of CFSE positive peaks over the undivided peak (generation 0) was analyzed using the ImageJ software.

GSC23 and GSC262 cells [3] = assay: Apoptosis analysis of GSCs (Apotracker/PI flow cytometry); format: cell-based, human; conditions: GSC23 and GSC262 with TFPI2 OE plasmid; JNK-IN-8 10 nM, WP1066 20 nM
Method: Cell apoptosis was evaluated using Apotracker Green (BioLegend, #427402) (Ref. 78; incorporated by reference in its entirety). 10^5 cells were collected and stained with Apotracker (1:10 dilution) in […] cell staining buffer. […] propidium iodide (PI) solution (BioLegend, #421301) was added for labeling late apoptotic and necrotic cells. After washing with PBS twice, FITC and PI signals were analyzed in BD FACSymphony flow cytometer.

STAT3 = assay: Immunoblot for P-STAT3 and STAT3 in GSCs; format: cell-based, human; conditions: GSC23 and GSC262, TFPI2 OE or TFPI2 recombinant protein 20 ng/ml; JNK-IN-8 10 nM
Method: (§2) The protein expression in cells was determined by western blotting analysis (Ref. 61; incorporated by reference in its entirety). Cells were homogenized in RIPA lysis buffer containing phosphatase/protease cocktail inhibitors (Cell Signaling Technology, #5870). The protein concentration was determined by BCA Protein Assay Kit (Thermo Fisher Scientific, #P123225). Protein solution was mixed with the Leammli sample buffer and heated at 95° C. before loading to SurePAGE gels (GenScript, #M00653). The gels were run at a constant voltage of 80 V and then transferred to 0.2 μm nitrocellulose membrane (Bio-Rad, #1620112) using the Trans-Blot Turbo system (Bio-Rad) with a preprogrammed standard protocol for 30 min. Nitrocellulose membrane was incubated with 5% dry milk to block any unspecific staining. […]

GSC23 tumor = assay: Survival of nude mice implanted with GSC23 expressing TFPI2 overexpression plasmid; format: in vivo, mouse; conditions: 30 mg/kg body weight, i.p., every day, on day 7
Method: as §1, with “Following the transcardiac perfusion with PBS and 4% paraformaldehyde (PFA), brains were removed and fixed in 4% PFA, and were processed for paraffin-embedded blocks or cryosectioning.” left out

JNK = assay: Immunoblot for P-JNK and JNK in GSCs; format: cell-based, human; conditions: GSC23 and GSC262, TFPI2 OE or TFPI2 recombinant protein 20 ng/ml; WP1066 20 nM
Method: as §2

Row | SMILES | survival of mice implanted with 005 GSCs and CT2A cells, inhibitor alone (005 GSC and CT2A tumors; MK-0429 30 mg/kg or AS1517499 10 mg/kg, i.p., every other day, on day 7, Cilengitide dose not given) | survival of mice bearing 005 GSC and CT2A tumors, combination with anti-PD1 therapy (005 GSC and CT2A tumors) | self-renewal effect of increasing cellular TFPI2 in GSCs (tumorspheres) (GSC23 and GSC262 cells [1]) | proliferation effect of increasing cellular TFPI2 in GSCs (GSC23 and GSC262 cells [2]) | apoptotic effect of increasing cellular TFPI2 in GSCs (GSC23 and GSC262 cells [3]) | TFPI2-induced STAT3 activation (P-STAT3) (STAT3) | shortening of survival by TFPI2 overexpression in GSC23 tumor-bearing mice (GSC23 tumor) | TFPI2-induced JNK activation (P-JNK) (JNK)
1 | CC(C)[C@H]1C(=O)N[C@@H](CCCN=C(N)N)C(=O)NCC(=O)N[C@@H](CC(=O)O)C(=O)N[C@H](Cc2ccccc2)C(=O)N1C [Cilengitide] | significantly extended the survival | enhanced the efficacy | – | – | – | – | – | –
2 | Cc1cc(NC(=O)c2cccc(NC(=O)/C=C/CN(C)C)c2)ccc1Nc1nccc(-c2cccnc2)n1 [JNK-IN-8] | – | – | negated | negated | negated | blocked | abolished | –
3 | COc1ccc([C@H](CC(=O)O)N2CCN(CCCc3ccc4c(n3)NCCC4)C2=O)cn1 [MK-0429] | – | synergized | – | – | – | – | – | –
4 | C[C@H](NC(=O)/C(C#N)=C/c1cccc(Br)n1)c1ccccc1 [WP1066] | – | – | negated | negated | negated | – | abolished | no effect
